According to patent US20240269139A1, “COMPOUNDS FOR TARGETED PROTEIN DEGRADATION OF KINASES” (DANA-FARBER CANCER INSTITUTE, INC., priority 2020, published 2024):
Like-named read-outs stand apart in the source and are kept apart here.

Tests used:
[1] = biological target: protein kinases (human kinome) (Homo sapiens, UniProt Q9H0K1); assay type: cell-based; conditions: for logFC of SIK2: Accession Q9H0K1; for logFC SIK2 (Q9H0K1): direction of change down
[2] = test system: protein kinases (human kinome); assay type: cell-based; conditions: for logFC MAPK8: MAPK8 P45983-4; for logFC PTK2B: accession Q14289-2; for kinases the bifunctional compound degrades: as stated for the structure in the embodiments; for Kinase hits: kinases significantly downregulated vs DMSO (fold change cutoff −1.25, P-value<0.01), ≤8 h, 0.1-5 μM degrader, 7 cell lines; for Total no. kinase hits: number of degraded kinases per library compound; for logFC of SRC: Accession P12931-2
[3] = Experiment wp168, direction down
[4] = MAPK14, accession Q16539-2, experiment wp168, direction of change down
[5] = MAPK14 Q16539-2, experiment wp168
[6] = PTK2B (Q14289-2), experiment wp168, direction down
[7] = experiment wp168, direction of change down
[8] = SRC (P12931-2) protein abundance, degrader vs DMSO, down

Sequence of protein kinases (human kinome) (Homo sapiens, UniProt Q9H0K1) (Q9H0K1 whole entry): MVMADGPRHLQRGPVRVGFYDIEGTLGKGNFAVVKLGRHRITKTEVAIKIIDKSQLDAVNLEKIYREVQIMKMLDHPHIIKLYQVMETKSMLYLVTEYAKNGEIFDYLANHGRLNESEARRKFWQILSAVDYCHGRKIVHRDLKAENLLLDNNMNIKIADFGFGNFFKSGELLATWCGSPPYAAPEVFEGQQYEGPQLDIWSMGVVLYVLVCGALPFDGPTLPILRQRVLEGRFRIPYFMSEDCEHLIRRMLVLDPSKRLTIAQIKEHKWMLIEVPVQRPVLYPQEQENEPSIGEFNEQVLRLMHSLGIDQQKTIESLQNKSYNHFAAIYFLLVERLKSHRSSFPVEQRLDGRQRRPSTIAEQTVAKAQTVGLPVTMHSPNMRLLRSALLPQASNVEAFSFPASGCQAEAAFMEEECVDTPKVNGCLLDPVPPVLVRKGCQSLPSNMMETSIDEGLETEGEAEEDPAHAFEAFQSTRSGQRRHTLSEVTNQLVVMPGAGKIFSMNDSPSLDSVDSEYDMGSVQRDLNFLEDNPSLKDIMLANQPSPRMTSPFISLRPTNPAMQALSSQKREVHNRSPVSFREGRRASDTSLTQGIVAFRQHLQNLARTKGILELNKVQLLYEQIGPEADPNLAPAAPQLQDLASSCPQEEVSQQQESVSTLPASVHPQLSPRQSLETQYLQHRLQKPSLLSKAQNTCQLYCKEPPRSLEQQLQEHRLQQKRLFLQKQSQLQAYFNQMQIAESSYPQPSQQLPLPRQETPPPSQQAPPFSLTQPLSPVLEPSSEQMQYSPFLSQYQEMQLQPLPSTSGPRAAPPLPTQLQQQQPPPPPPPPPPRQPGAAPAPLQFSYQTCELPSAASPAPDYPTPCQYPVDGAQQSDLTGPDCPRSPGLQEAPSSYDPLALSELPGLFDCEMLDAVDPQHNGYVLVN

## Cc1ncsc1-c1ccc([C@H](C)NC(=O)[C@@H]2C[C@@H](O)CN2C(=O)[C@@H](NC(=O)CCCCCN2CCc3cc(Nc4ncc(C5CC5)c(NCCCNC(=O)C5CCC5)n4)ccc3C2)C(C)(C)C)cc1 [BSJ.05.026]
[1]; experiment wp195
  logFC of SIK2: −0.9472
  logFC SIK2 (Q9H0K1): −0.9472
[2]; MARK3 (P27448-5), experiment wp195
  logFC: −0.8242
[2]; experiment wp195, direction of change down
  logFC MARK3 (P27448-5): −0.8242

## Cc1ccc(NC(=O)c2cccc(C(F)(F)F)c2)cc1N1Cc2cnc(Nc3ccc(N4CCN(CCCOc5cccc6c5C(=O)N(C5CCC(=O)NC5=O)C6=O)CC4)nc3)nc2N(C)C1=O (stereo not drawn) [DB0662]
[1]; experiment wp168
  logFC of SIK2: −0.777
  logFC SIK2 (Q9H0K1): −0.777
[2]; Accession P06241-2, experiment wp168
  logFC FYN: −0.5636
[2]; Experiment wp168
  logFC MAP3K20 (Q9NYL2-2): −1.006
[2]; [3]
  logFC MAPK8 (P45983-4): −0.8961
[2]; FYN P06241-2, experiment wp168
  logFC FYN: −0.5636
[2]; experiment wp168
  logFC MAPK8: −0.8961
  logFC MAP3K20 (Q9NYL2-2): −1.006
[2]; [4]
  logFC MAPK14: −1.34
[2]; [5]
  logFC MAPK14: −1.34
[2]; [6]
  logFC: −3.245
[2]; [7]
  logFC PTK2B: −3.245
[2]
  kinases the bifunctional compound degrades: ABL1, ABL2, BLK, BUB1, CDK11B, CDK4, CSK, EPHB6, FER. FYN, GAK, LCK, LIMK1, MAP3K1, MAP3K11, MAP3K20, MAP4K1, MAPK14, MAPK8, MAPK9, MAPKAPK2, MKNK2, PAK4, PDIK1L, PTK2B, RPS6KA1, RPS6KA3, SIK2, SRC, TNK2, UHMK1, ULK1, and YES1
  Kinase hits: ABL1, ABL2, BLK, BUB1, CDK11B, CDK4, CSK, EPHB6, FER, FYN, GAK, LCK, LIMK1, MAP3K1, MAP3K11, MAP3K20, MAP4K1, MAPK14, MAPK8, MAPK9, MAPKAPK2, MKNK2, PAK4, PDIK1L, PTK2B, RPS6KA1, RPS6KA3, SIK2, SRC, TNK2, UHMK1, ULK1,YES1
  Total no. kinase hits: 33

## Cc1ccc(NC(=O)c2cccc(C(F)(F)F)c2)cc1N1Cc2cnc(Nc3ccc(N4CCN(CCCCCCOc5cccc6c5C(=O)N(C5CCC(=O)NC5=O)C6=O)CC4)nc3)nc2N(C)C1=O (stereo not drawn) [DB0663]
[1]; experiment wp045
  logFC of SIK2: −0.4765
[1]; SIK2 (Q9H0K1), experiment wp045, down
  logFC SIK2: −0.4765
[2]; experiment wp045
  logFC of SRC: −0.4247
  logFC MAP3K20 (Q9NYL2-2): −0.8012
[2]; Experiment wp046
  logFC MAP3K20 (Q9NYL2-2): −0.8012
[2]; LCK, accession P06239-3, experiment wp045, direction of change down
  logFC LCK: −0.5823
[2]; [8]
  logFC: −0.4247
[2]; TNK2 (Q07912-3), experiment wp045, direction down
  logFC: −0.9271
[2]; TNK2 Q07912-3, experiment wp045
  logFC TNK2: −0.9271
[2]
  kinases the bifunctional compound degrades: CDK4, BLK, FER, LIMK2, GAK, CSK, SIK2, LCK, PTK2B, SRC, ABL2, MAPK14,a MAPK9, MAP4K2, MKNK2, MAP3K20, and TNK2
  Kinase hits: CDK4, BLK, FER, LIMK2, GAK, CSK, SIK2, LCK, PTK2B, SRC, ABL2, MAPK14.a MAPK9, MAP4K2, MKNK2, MAP3K20, TNK2
  Total no. kinase hits: 17
[2]; experiment wp045, direction of change down
  logFC LCK (P06239-3): −0.5823

## Cc1ccc(NC(=O)c2cccc(C(F)(F)F)c2)cc1N1Cc2cnc(Nc3ccc(N4CCN(CCCCC(=O)N[C@H](C(=O)N5C[C@H](O)C[C@H]5C(=O)N[C@@H](C)c5ccc(-c6scnc6C)cc5)C(C)(C)C)CC4)nc3)nc2N(C)C1=O [DB1113]
[1]; experiment wp168
  logFC of SIK2: −0.7296
  logFC SIK2 (Q9H0K1): −0.7296
[2]; Experiment wp168
  logFC MAP3K20 (Q9NYL2-2): −0.9693
[2]; [3]
  logFC MAPK8 (P45983-4): −0.3642
[2]; experiment wp168
  logFC MAPK8: −0.3642
  logFC MAP3K20 (Q9NYL2-2): −0.9693
[2]; [4]
  logFC MAPK14: −1.588
[2]; [5]
  logFC MAPK14: −1.588
[2]; [6]
  logFC: −1.705
[2]; [7]
  logFC PTK2B: −1.705
[2]
  kinases the bifunctional compound degrades: ABL1, ABL2, BLK, CDK11B, CDK4, CSK, EPHA3, FER, GAK, LIMK1, MAP3K20, MAP4K1, MAP4K2, MAP4K3, MAP4K5, MAPK14, MAPK7, MAPK8, MAPK9, MAPKAPK2, MAPKAPK3, NLK, PDIK1L, PTK2B, RIPK1, RPS6KA1, RPS6KA3, SIK2, SIK3, STK35, TNK2, and ULK1
  Kinase hits: ABL1, ABL2, BLK, CDK11B, CDK4, CSK, EPHA3, FER, GAK, LIMK1, MAP3K20, MAP4K1, MAP4K2, MAP4K3, MAP4K5, MAPK14, MAPK7, MAPK8, MAPK9, MAPKAPK2, MAPKAPK3, NLK, PDIK1L, PTK2B, RIPK1, RPS6KA1, RPS6KA3, SIK2, SIK3, STK35, TNK2, ULK1
  Total no. kinase hits: 31

## Cc1cnc(Nc2ccc(N3CCN(CCCCCCC(=O)N[C@H](C(=O)N4C[C@H](O)C[C@H]4C(=O)N[C@@H](C)c4ccc(-c5scnc5C)cc4)C(C)(C)C)CC3)cc2)nc1Nc1cccc(S(=O)(=O)NC(C)(C)C)c1 [JWG.123]
[1]; experiment wp195
  logFC of SIK2: −0.6143
  logFC SIK2 (Q9H0K1): −0.6143

## Cc1ccc(C(=O)Nc2ccc(CN3CCN(CCCOCCOCCOCCNC(=O)COc4cccc5c4C(=O)N(C4CCC(=O)NC4=O)C5=O)CC3)c(C(F)(F)F)c2)cc1C#Cc1cnc2cccnn12 (stereo not drawn) [SB1-G-187, N-(4-((4-(1-((2-(2,6-dioxopiperidin-3-yl)-1,3-dioxoisoindolin-4-yl)oxy)-2-oxo-6,9,12-trioxa-3-azapentadecan-15-yl)piperazin-1-yl)methyl)-3 (trifluoromethyl)phenyl)-3-(imidazo[1,2-b]pyridazin-3-ylethynyl)-4-methylbenzamide]
[2]
  kinases the bifunctional compound degrades: ABL1, ABL2, BLK, CDK14, CDK17, CDK5. CDK6, COQ8A, EPHA1, EPHA2, FER, FYN, GAK, IRAK1, LCK, LYN, MAP3K1, MAP3K20, MAP3K7, MAP4K2, MAP4K5, MAPK14, PDK1, PDK2, PDK3, RIPK1, RIPK2, SRC, STK10, TAOK3, and YES1
  Kinase hits: ABL1, ABL2, BLK, CDK14, CDK17, CDK5, CDK6, COQ8A, EPHA1, EPHA2, FER, FYN, GAK, IRAK1, LCK, LYN, MAP3K1, MAP3K20, MAP3K7, MAP4K2, MAP4K5, MAPK14, PDK1, PDK2, PDK3, RIPK1, RIPK2, SRC, STK10, TAOK3, YES1,
  Total no. kinase hits: 31

## CC(C)S(=O)(=O)c1ccccc1Nc1nc(Nc2ccc(N3CCN(CCOCCNC(=O)CNc4cccc5c4C(=O)N(C4CCC(=O)NC4=O)C5=O)CC3)cc2)ncc1Cl (stereo not drawn) [SK-3-91]
[2]; MOLT-4, KELLY, HEK293T
  targets with significantly different degrader efficacy in the different cell lines with no obvious difference in protein expression: SIK2, LIMK1, FAK
[2]
  Kinase hits: AAK1, ABL1, ABL2, AKT2, AKT3, AURKA, AURKB, BCKDK, BLK, BMP2K, BMPR1A, BUB1, BUB1B, CDC7, CDK10, CDK12, CDK13, CDK14, CDK16, CDK17, CDK18, CDK2, CDK4, CDK5, CDK6, CDK7, CDK9, CO18A, CSK, CSNK1D, EPHB2, EPHB4, FER, FYN, GAK HIPK1, ITK, LATS1,
  Total no. kinase hits: 89

## Cc1ccc(C(=O)Nc2ccc(CN3CCN(CCOCCOCCNC(=O)CNc4cccc5c4C(=O)N(C4CCC(=O)NC4=O)C5=O)CC3)c(C(F)(F)F)c2)cc1C#Cc1cnc2cccnn12 (stereo not drawn) [TL13.150]
[2]; experiment wp081
  logFC of SRC: −0.5331
[2]; MAPK14, accession Q16539-2, experiment wp081, direction of change down
  logFC MAPK14: −0.5025
[2]; MAPK14 Q16539-2, experiment wp081
  logFC MAPK14: −0.5025
[2]; [8]
  logFC: −0.5331

## Nc1ncc(-c2ccc(S(=O)(=O)N(CCCNC(=O)CCOCCOCCOCCOCCOCCNc3cccc4c3C(=O)N(C3CCC(=O)NC3=O)C4=O)C3CC3)cc2)cc1-c1ccc2c(c1)CCNC2=O (stereo not drawn) [WH.10417.099]
[2]; Accession P48730-2, experiment wp056, direction down
  logFC CSNK1D: −1.455
[2]; Accession P48730-2, experiment wp103, direction down
  logFC CSNK1D: −1.301
[2]; Accession P48730-2, experiment wp107, direction down
  logFC CSNK1D: −1.248
[2]; Accession P48730-2, experiment wp172, direction down
  logFC CSNK1D: −0.6401
[2]; Accession P49841-2, experiment wp056, direction down
  logFC GSK3B: −1.294
[2]; Accession P49841-2, experiment wp103, direction down
  logFC GSK3B: −1.442
[2]; Accession P49841-2, experiment wp105, direction down
  logFC GSK3B: −0.8403
[2]; Accession P49841-2, experiment wp107, direction down
  logFC GSK3B: −1.446
[2]; CSNK1A1 (P48729-2), experiment wp107
  logFC: −2.428
[2]; CSNK1D P48730-2, experiment wp056
  logFC CSNK1D: −1.455
[2]; CSNK1D P48730-2, experiment wp103
  logFC CSNK1D: −1.301
[2]; CSNK1D P48730-2, experiment wp107
  logFC CSNK1D: −1.248
[2]; CSNK1D P48730-2, experiment wp172
  logFC CSNK1D: −0.6401
[2]; Experiment wp107
  logFC of CSNK1A1 (P48729-2): −2.428
[2]; GSK3B P49841-2, experiment wp056
  logFC GSK3B: −1.294
[2]; GSK3B P49841-2, experiment wp103
  logFC GSK3B: −1.442
[2]; GSK3B P49841-2, experiment wp105
  logFC GSK3B: −0.8403
[2]; GSK3B P49841-2, experiment wp107
  logFC GSK3B: −1.446
